Data from the supplement of paper PMC10307832.

Assays:
Test in all cases: relative viability (nuclei count vs DMSO), 5 days (fraction); higher = more cells survive
[1] = compound: C1CNCCC1C2=CC(=NN2)C3=CC=NC=C3 + CS(=O)(=O)N1CCN(Cc2cc3nc(-c4cccc5[nH]ncc45)nc(N4CCOCC4)c3s2)CC1 [Pictilisib] (partner 1 µM)
Outline: (§1)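 Values are medians from duplicate plates. Each reflects relative viability, defined as the nuclei count of treated wells over that of vehicle wells. Lung cancer cell lines in 1536-well plates were pin-tool dosed one day after seeding with one drug alone or with a fixed anchor-drug dose plus five library-drug doses (not always all listed) in √10 steps, then fixed, stained and imaged at 4× after 5 days.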

Tanzisertib + Dasatinib = compound: O[C@H]1CC[C@H](Nc2ncc3nc(Nc4c(F)cc(F)cc4F)n([C@H]4CCOC4)c3n2)CC1 [Tanzisertib] + Cc1nc(Nc2ncc(C(=O)Nc3c(C)cccc3Cl)s2)cc(N2CCN(CCO)CC2)n1 [Dasatinib] (partner 0.075 µM)
Outline: as §1

Tanzisertib + Alpelisib = compound: O[C@H]1CC[C@H](Nc2ncc3nc(Nc4c(F)cc(F)cc4F)n([C@H]4CCOC4)c3n2)CC1 [Tanzisertib] + Cc1nc(NC(=O)N2CCC[C@H]2C(N)=O)sc1-c1ccnc(C(C)(C)C(F)(F)F)c1 [Alpelisib] (partner 2 µM)
Outline: as §1

[2] = compound: C1CNCCC1C2=CC(=NN2)C3=CC=NC=C3 + COc1cccc2cc(-c3nc([C@H]4CC[C@H](C(=O)O)CC4)n4ncnc(N)c34)[nH]c12 [OSI-027] (partner 0.5 µM)
Outline: as §1

Cell Line: UMC-11
- relative viability ([1]; first compound 0.08 µM): 0.698
- relative viability ([1]; first compound 0.8 µM): 1.16
- relative viability ([1]; first compound 2.53 µM): 0.97
- relative viability ([1]; first compound 8 µM): 0.822
- relative viability (Tanzisertib + Dasatinib; first compound 0.08 µM): 0.487
- relative viability (Tanzisertib + Dasatinib; first compound 0.253 µM): 0.456
- relative viability (Tanzisertib + Dasatinib; first compound 0.8 µM): 0.437
- relative viability (Tanzisertib + Dasatinib; first compound 2.53 µM): 0.449
- relative viability (Tanzisertib + Dasatinib; first compound 8 µM): 0.48
- relative viability (Tanzisertib + Alpelisib; first compound 0.08 µM): 0.835
- relative viability (Tanzisertib + Alpelisib; first compound 0.253 µM): 0.987
- relative viability (Tanzisertib + Alpelisib; first compound 0.8 µM): 0.999
- relative viability (Tanzisertib + Alpelisib; first compound 2.53 µM): 0.956
- relative viability (Tanzisertib + Alpelisib; first compound 8 µM): 1.13
- relative viability ([2]; first compound 0.08 µM): 0.452
- relative viability ([2]; first compound 0.8 µM): 0.537
- relative viability ([2]; first compound 2.53 µM): 0.459
- relative viability ([2]; first compound 8 µM): 0.553
